The subject of the experiment is Octopus minor. Nature of the experiment: Analysis of bioactivity of octopressin peptide: behavior change of adult Octopus minor after injection. It is filed as in vivo. As to the method: Peptides satisfying the octopressin amino acid sequence and modification predicted in Example 4 were ordered and purchased from a peptide synthesizing company and used. A dried peptide powder was dissolved in tertiary distilled water to a concentration of 10 mg/ml, diluted 100 times of artificial seawater filtered through a 0.20 μm filter to prepare an injection solution. A disposable syringe and a 26 gauge needle were used to poke at a 1 cm deep, and the injection solution was administered in the center between the body of the head of the adult Octopus minor. The injection volume was 100 microgram/kg by weight of the Octopus minor. As a control group, Octopus minor without injection (before injection), Octopus minor injected with filtered artificial seawater only, and Octopus minor injected with octopus-derived octopressin were used. […] In addition, these behavior changes began to appear 1 to 5 minutes after injection and lasted for 10 to 20 minutes, and the effect peaked between 5 to 10 minutes after injection and lasted for 10 to 20 minutes. […] Here, the used Octopus minor were discarded without reuse.

The results in this text go back to patent US11459355B2, “Peptides having octopus octopressin activity and use thereof” (NATIONAL MARINE BIODIVERSITY INSTITUTE OF KOREA, priority 2018, dated 2022).

“CFWTNCPVG (Octopressin_active peptide) [octopressin-activated peptide]”: the “brooding-like behavior after injection (FIG. 6B)” value (Octopus minor injected with octopressin) is reported as “behaviors similar to the brooding behaviors”. In addition, under “adult Octopus minor, injection between body and head, 100 microgram/kg, total of 12 Octopus minors, regardless of sex”, the “behavior change after injection (repetitive bending and stretching of arms, social behaviors)” value is reported as “had bioactivity”.
